Reference: the supplement of paper PMC10307832

Tests used:
Assay in all cases: relative viability (nuclei count vs DMSO), 5 days (fraction); higher = more cells survive
Bosutinib + Crizotinib = compound: COc1cc(Nc2c(C#N)cnc3cc(OCCCN4CCN(C)CC4)c(OC)cc23)c(Cl)cc1Cl [Bosutinib] + C[C@@H](Oc1cc(-c2cnn(C3CCNCC3)c2)cnc1N)c1c(Cl)ccc(F)c1Cl [Crizotinib] (partner 1 µM)
Summary of the method: (§1)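 Medians of duplicate plates are given as relative viability. That measure is the nuclei count in treated wells divided by the count in vehicle wells. Counts were taken on 4× images of lung cancer cell lines in 1536-well plates, 5 days after pin-tool dosing the day after seeding with one drug alone or a fixed anchor-drug dose plus five library-drug doses (not always all listed) in √10 steps.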

Bosutinib + Linsitinib = compound: COc1cc(Nc2c(C#N)cnc3cc(OCCCN4CCN(C)CC4)c(OC)cc23)c(Cl)cc1Cl [Bosutinib] + C[C@]1(O)C[C@@H](c2nc(-c3ccc4ccc(-c5ccccc5)nc4c3)c3c(N)nccn32)C1 [Linsitinib] (partner 1 µM)
Summary of the method: as §1

Bosutinib + Vorinostat = compound: COc1cc(Nc2c(C#N)cnc3cc(OCCCN4CCN(C)CC4)c(OC)cc23)c(Cl)cc1Cl [Bosutinib] + O=C(CCCCCCC(=O)Nc1ccccc1)NO [Vorinostat] (partner 1 µM)
Summary of the method: as §1

Bosutinib = compound: COc1cc(Nc2c(C#N)cnc3cc(OCCCN4CCN(C)CC4)c(OC)cc23)c(Cl)cc1Cl [Bosutinib]
Summary of the method: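 Lung cancer cell lines in 1536-well plates were exposed by pinning to five library-drug doses (not always all listed) √10 apart, following an overnight hold at 37 °C. MetaXpress counted Hoechst-stained nuclei from 4× images taken after 5 days without medium change. Viability is the median ratio of treated-well to vehicle-well nuclei across plates. Plates required control CV below 25% and at least one doubling.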

Bosutinib + Luminespib = compound: COc1cc(Nc2c(C#N)cnc3cc(OCCCN4CCN(C)CC4)c(OC)cc23)c(Cl)cc1Cl [Bosutinib] + CCNC(=O)c1noc(-c2cc(C(C)C)c(O)cc2O)c1-c1ccc(CN2CCOCC2)cc1 [Luminespib] (partner 0.01 µM)
Summary of the method: as §1

| Cell Line | relative viability (Bosutinib + Crizotinib; first compound 0.01 µM) | relative viability (Bosutinib + Crizotinib; first compound 0.03162 µM) | relative viability (Bosutinib + Crizotinib; first compound 0.1 µM) | relative viability (Bosutinib + Crizotinib; first compound 1 µM) | relative viability (Bosutinib + Linsitinib; first compound 0.01 µM) | relative viability (Bosutinib + Linsitinib; first compound 0.03162 µM) | relative viability (Bosutinib + Linsitinib; first compound 0.1 µM) | relative viability (Bosutinib + Linsitinib; first compound 1 µM) | relative viability (Bosutinib + Vorinostat; first compound 0.01 µM) | relative viability (Bosutinib + Vorinostat; first compound 0.03162 µM) | relative viability (Bosutinib + Vorinostat; first compound 0.1 µM) | relative viability (Bosutinib + Vorinostat; first compound 1 µM) | relative viability (Bosutinib; 0.01 µM) | relative viability (Bosutinib; 0.03162 µM) | relative viability (Bosutinib; 0.1 µM) | relative viability (Bosutinib; 1 µM) | relative viability (Bosutinib + Luminespib; first compound 0.01 µM) | relative viability (Bosutinib + Luminespib; first compound 0.03162 µM) | relative viability (Bosutinib + Luminespib; first compound 0.1 µM) | relative viability (Bosutinib + Luminespib; first compound 1 µM) |
| --- | --- | --- | --- | --- | --- | --- | --- | --- | --- | --- | --- | --- | --- | --- | --- | --- | --- | --- | --- | --- |
| HCC-78 | 0.358 | 0.319 | 0.284 | 0.314 | 0.575 | 0.492 | 0.52 | 0.407 | 0.469 | 0.362 | 0.444 | 0.356 | 0.906 | 1.2 | 1.08 | 0.902 | – | – | – | – |
| HCC-366 | 0.59 | 0.6 | 0.516 | 0.316 | 0.708 | 0.604 | 0.457 | 0.0753 | 0.433 | 0.378 | 0.375 | 0.286 | 0.991 | 1 | 0.974 | 0.785 | – | – | – | – |
| HCC-827 | 0.874 | 0.943 | 0.91 | 0.605 | 0.987 | 0.967 | 0.914 | 0.843 | 0.811 | 0.903 | 1.04 | 0.75 | 1.07 | 1.05 | 1.09 | 0.649 | 0.709 | 0.589 | 0.525 | 0.174 |
| HOP-62 | 0.897 | 0.949 | 0.964 | 0.986 | 0.881 | 0.949 | 1.01 | 1.11 | 0.641 | 0.687 | 0.682 | 0.652 | 0.977 | 1.01 | 0.959 | 1.05 | 0.993 | 0.895 | 0.937 | 0.904 |
| IA-LM | 0.733 | 0.777 | 0.839 | 0.688 | 0.637 | 0.744 | 0.754 | 0.745 | 1.06 | 0.945 | 0.894 | 0.947 | 0.998 | 1.08 | 0.967 | 1.01 | – | – | – | – |
| LC-2-ad | 0.449 | 0.473 | 0.445 | 0.539 | 0.902 | 0.879 | 0.871 | 0.78 | 0.735 | 0.659 | 0.673 | 0.71 | 0.961 | 1.08 | 1.06 | 1 | 1.05 | 0.924 | 0.978 | 1.01 |
| LCLC-97TM1 | 0.369 | 0.494 | 0.443 | 0.414 | 0.213 | 0.216 | 0.209 | 0.175 | 0.925 | 0.763 | 0.811 | 0.823 | 1.03 | 0.969 | 1.06 | 1.04 | 0.871 | 0.744 | 0.74 | 0.746 |
| LCLC-103H | 1.03 | 1.11 | 0.992 | 0.849 | 1.11 | 1.12 | 1.04 | 1.04 | 0.799 | 0.858 | 0.889 | 0.841 | 1.01 | 0.999 | 0.991 | 0.996 | 0.958 | 0.933 | 1.02 | 0.975 |
| LK-2 | 0.258 | 0.227 | 0.248 | 0.224 | 0.671 | 0.55 | 0.523 | 0.337 | 0.267 | 0.278 | 0.263 | 0.313 | 0.942 | 0.972 | 0.929 | 0.867 | 0.199 | 0.171 | 0.19 | 0.209 |
| NCI-H522 | – | – | – | – | – | – | – | – | 0.873 | 0.88 | 0.892 | 0.783 | 0.935 | 1.03 | 1.05 | 0.895 | 1.15 | 1.16 | 1.26 | 1.01 |
| NCI-H1395 | – | – | – | – | 1.28 | 1.17 | 1.27 | 0.994 | 0.802 | 0.827 | 0.862 | 0.787 | 0.932 | 0.914 | 1.01 | 0.817 | 0.677 | 0.635 | 0.761 | 0.615 |
| NCI-H1563 | 0.896 | 0.753 | 0.753 | 0.658 | 1.24 | 1.2 | 1.06 | 0.792 | – | – | – | – | 1.05 | 0.906 | 0.928 | 0.713 | 0.516 | 0.535 | 0.54 | 0.521 |
| NCI-H1650 | 0.921 | 0.989 | 0.908 | 0.496 | – | – | – | – | 0.717 | 0.623 | 0.529 | 0.41 | 1.01 | 0.846 | 0.778 | 0.783 | 0.193 | 0.209 | 0.174 | 0.154 |
| NCI-H1703 | 0.769 | 0.667 | 0.493 | 0.319 | 0.804 | 0.932 | 0.587 | 0.388 | – | – | – | – | 0.869 | 0.972 | 0.835 | 0.468 | – | – | – | – |
| NCI-H1792 | 0.984 | 0.978 | 0.981 | 1 | 0.638 | 0.525 | 0.586 | 0.449 | – | – | – | – | 0.822 | 1.08 | 0.993 | 0.84 | 0.528 | 0.35 | 0.411 | 0.367 |
| NCI-H1793 | – | – | – | – | 0.875 | 0.742 | 0.904 | 0.551 | 0.718 | 0.75 | 0.877 | 0.504 | 0.916 | 0.84 | 0.791 | 0.588 | 0.213 | 0.205 | 0.163 | 0.179 |
| NCI-H2170 | 1.25 | 1.14 | 1.15 | 1.06 | – | – | – | – | 0.882 | 0.832 | 0.891 | 0.774 | 1.01 | 0.974 | 1.01 | 0.926 | 0.515 | 0.665 | 0.702 | 0.44 |
| SW 900 | – | – | – | – | – | – | – | – | 0.605 | 0.531 | 0.671 | 0.409 | 0.856 | 0.706 | 0.801 | 0.815 | 0.154 | – | 0.183 | 0.15 |
